Assay results reported in patent publication US6747016B1, “Substituted purine derivatives as inhibitors of cell adhesion” (Aventis Pharma Deutschland GmbH, priority 1999, dated 2004).

Columns and labels:
[1] = target: human vitronectin receptor αvβ3 (Homo sapiens, UniProt P05106+P06756); experiment: Kistrin binding assay (K/VnR, αvβ3 ELISA test); conditions: inhibition of binding of kistrin to human vitronectin receptor
From the text: The inhibition of the binding of kistrin to human vitronectin receptor (VnR) described below is a test method by which the antagonistic action of the compounds of the invention on the vitronectin receptor αvβ3 can be determined (αvβ3 ELISA Test; the test method is abbreviated as “K/VnR” in the listing of the test results).
Kistrin is purified according to the methods of Dennis et al., as described in Proc. Natl. Acad. Sci. USA 87 (1989) 2471 and Proteins: Structure, Function and Genetics 15 (1993) 312.
Purification of Human Vitronectin Receptor (αvβ3)
144 (1987) 475. Human vitronectin receptor αvβ3 can also be obtained from some cell lines (for example from 293 cells, a human embryonic kidney cell line) which are co-transfected with DNA sequences for both subunits αv and β3 of the vitronectin receptor. The subunits are extracted with octyl glycoside and then chromatographed through concanavalin A, heparin-Sepharose and S-300.
Murine monoclonal antibodies which are specific for the β3 subunits of the vitronectin receptor, are prepared according to the method of Newman et al., Blood, 1985, 227, or by a similar process. The rabbit Fab 2 anti-mouse Fc conjugate to horseradish peroxidase (anti-mouse Fc HRP) was obtained from Pel Freeze (Catalog No. 715 305-1).
The ability of substances to inhibit the binding of kistrin to the vitronectin receptor can be determined using an ELISA test. For this purpose, Nunc 96-well microtiter plates are coated with a solution of kistrin (0.002 mg/ml) according to the method of Dennis et al., as described in Proteins: Structure, Function and Genetics 15 (1993) 312. The plates are then washed twice with PBS/0.05% Tween-20 and blocked by incubating (60 min) with bovine serum albumin (BSA, 0.5%, RIA grade or better) in buffer solution (Tris-HCl (50 mM), NaCl (100 mM), MgCl2 (1 mM), CaCl2 (1 mM), MnCl2 (1 mM), pH 7). Solutions of known inhibitors and of the test substances are prepared in concentrations from 2×10^−12 to 2×10^−6 mol/l in assay buffer (BSA (0.5%, RIA grade or better); Tris-HCl (50 mM), NaCl (100 mM), MgCl2 (1 mM), CaCl2 (1 mM), MnCl2 (1 mM), pH 7). The blocked plates are emptied, and in each case 0.025 ml of this solution which contains a defined concentration (2×10^−12 to 2×10^−6 mol/l) either of a known inhibitor or of a test substance, are added to each well. 0.025 ml of a solution of the vitronectin receptor in assay buffer (0.03 mg/ml) is pipetted into each well of the plate and the plate is incubated at room temperature for 60-180 min on a shaker. In the meantime, a solution (6 ml/plate) of a murine monoclonal antibody specific for the β3 subunit of the vitronectin receptor is prepared in assay buffer (0.0015 mg/ml). A second rabbit antibody (0.001 ml of stock solution/6 ml of the murine monoclonal anti-β3 antibody solution) which is an anti-mouse Fc HRP antibody conjugate is added to this solution, and this mixture of murine anti-β3 antibody and rabbit anti-mouse Fc HRP antibody conjugate is incubated during the time of the receptor-inhibitor incubation. The test plates are washed four times with PBS solution which contains 0.05% Tween-20, and in each case 0.05 ml/well of the antibody mixture is pipetted into each well of the plate and incubated for 60-180 min. The plate is washed four times with PBS/0.05% Tween-20 and then developed with 0.05 ml/well of a PBS solution which contains 0.67 mg/ml of o-phenylenediamine and 0.012% of H2O2. Alternatively to this, o-phenylenediamine can be employed in a buffer (pH 5) which contains Na3PO4 and citric acid. The color development is stopped using 1 N H2SO4 (0.05 ml/well). The absorption for each well is measured at 492-405 nm and the data are evaluated by standard methods.

[2] = target: 293 cells cotransfected with αv and β3 subunits of the vitronectin receptor αvβ3, binding to human vitronectin (Homo sapiens, UniProt P05106+P06756); experiment: Vitronectin/293 cell test (Vn/293 cell test); assay type: cell-based; conditions: inhibition of binding of 293 cells to human vitronectin
Sequence of 293 cells cotransfected with αv and β3 subunits of the vitronectin receptor αvβ3, binding to human vitronectin (P05106 whole entry): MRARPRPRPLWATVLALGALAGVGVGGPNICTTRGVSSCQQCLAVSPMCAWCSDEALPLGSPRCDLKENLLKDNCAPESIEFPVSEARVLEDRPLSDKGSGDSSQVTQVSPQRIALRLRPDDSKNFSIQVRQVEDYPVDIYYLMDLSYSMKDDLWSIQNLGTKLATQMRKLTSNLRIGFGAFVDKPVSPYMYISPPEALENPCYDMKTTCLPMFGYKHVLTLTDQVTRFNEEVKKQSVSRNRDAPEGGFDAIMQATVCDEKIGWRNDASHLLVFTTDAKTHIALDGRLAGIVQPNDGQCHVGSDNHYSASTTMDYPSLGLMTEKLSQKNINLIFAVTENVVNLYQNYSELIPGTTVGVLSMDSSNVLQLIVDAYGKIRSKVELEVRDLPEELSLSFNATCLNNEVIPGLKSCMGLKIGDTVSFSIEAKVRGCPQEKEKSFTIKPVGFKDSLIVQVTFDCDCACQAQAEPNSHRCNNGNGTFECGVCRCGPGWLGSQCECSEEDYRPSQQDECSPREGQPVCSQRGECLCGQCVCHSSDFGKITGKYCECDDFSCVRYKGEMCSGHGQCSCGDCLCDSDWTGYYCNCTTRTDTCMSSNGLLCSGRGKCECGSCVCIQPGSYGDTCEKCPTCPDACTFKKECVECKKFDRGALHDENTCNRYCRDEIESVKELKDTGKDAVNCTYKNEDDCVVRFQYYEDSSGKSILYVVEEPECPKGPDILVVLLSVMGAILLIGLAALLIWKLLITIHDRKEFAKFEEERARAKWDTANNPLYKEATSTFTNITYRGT
Sequence of 293 cells cotransfected with αv and β3 subunits of the vitronectin receptor αvβ3, binding to human vitronectin (P06756 whole entry): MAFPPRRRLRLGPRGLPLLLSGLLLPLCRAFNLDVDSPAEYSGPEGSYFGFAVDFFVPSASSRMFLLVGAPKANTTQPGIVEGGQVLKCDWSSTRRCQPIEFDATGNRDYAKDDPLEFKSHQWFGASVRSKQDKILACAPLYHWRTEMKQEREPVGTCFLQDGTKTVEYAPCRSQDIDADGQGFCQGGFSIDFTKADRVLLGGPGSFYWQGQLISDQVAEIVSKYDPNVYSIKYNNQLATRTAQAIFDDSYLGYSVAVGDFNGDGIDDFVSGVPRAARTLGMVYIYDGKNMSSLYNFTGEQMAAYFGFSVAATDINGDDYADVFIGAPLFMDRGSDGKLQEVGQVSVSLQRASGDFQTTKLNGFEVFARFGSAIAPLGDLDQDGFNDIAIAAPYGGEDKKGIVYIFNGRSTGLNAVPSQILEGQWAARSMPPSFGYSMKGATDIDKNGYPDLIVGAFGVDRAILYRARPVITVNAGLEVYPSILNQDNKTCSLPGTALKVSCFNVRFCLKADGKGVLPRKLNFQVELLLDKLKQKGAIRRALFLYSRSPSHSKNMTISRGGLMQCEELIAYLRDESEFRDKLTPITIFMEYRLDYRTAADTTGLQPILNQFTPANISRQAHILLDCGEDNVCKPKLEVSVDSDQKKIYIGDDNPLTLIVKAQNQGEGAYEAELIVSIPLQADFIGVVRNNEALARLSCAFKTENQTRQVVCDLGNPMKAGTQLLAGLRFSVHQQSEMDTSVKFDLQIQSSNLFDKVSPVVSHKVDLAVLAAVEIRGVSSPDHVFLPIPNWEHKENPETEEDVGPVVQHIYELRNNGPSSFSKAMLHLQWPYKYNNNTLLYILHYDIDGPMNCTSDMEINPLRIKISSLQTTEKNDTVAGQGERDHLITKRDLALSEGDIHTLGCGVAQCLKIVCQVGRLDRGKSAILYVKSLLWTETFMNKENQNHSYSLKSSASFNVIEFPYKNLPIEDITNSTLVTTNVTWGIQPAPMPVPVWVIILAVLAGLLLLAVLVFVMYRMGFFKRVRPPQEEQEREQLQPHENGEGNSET
Experimental: 2) Vitronectin/293 Cell Test
In this test the inhibition of binding of 293 cells to human vitronectin (Vn) by the compounds of the invention is determined (the test method is abbreviated as Vn/293 cell test in the listing of the test results).
Purification of Human Vitronectin
Human vitronectin was isolated from human plasma and purified by affinity chromatography according to the method of Yatohgo et al., Cell Structure and Function 23 (1988) 281.
293 cells, a human embryonic kidney cell line, which were cotransfected with DNA sequences for the αv and β3 subunits of the vitronectin receptor αvβ3, were selected for a high rate of expression (>500,000 αvβ3 receptors/cell) according to the FACS method. The selected cells were cultured and sorted again by means of FACS in order to obtain a stable cell line (15 D) with expression rates>1,000,000 copies of αvβ3 per cell.
A Linbro 96-well tissue culture plate with a flat bottom was coated overnight at 4° C. with human vitronectin (0.01 mg/ml, 0.05 ml/well) in phosphate-buffered saline solution (PBS) and then blocked with 0.5% strength BSA (bovine serum albumin). Solutions of the test substances from 10^−10 mol/l to 2×10^−3 mol/l in glucose-containing DMEM medium were prepared and 0.05 ml/well of the solution were added to the plate in each case. The cells which expressed high levels of αvβ3 (for example 15 D) were suspended in glucose-containing DMEM medium and the suspension was adjusted to a content of 25,000 cells/0.05 ml of medium. 0.05 ml of this cell suspension was added to each well and the plate was incubated at 37° C. for 90 min. The plate was washed 3 times with warm PBS in order to remove unbound cells. The bound cells were lyzed in citrate buffer (25 mM, pH 5.0) which contained 0.25% Triton X-100. The hexoseamidase substrate p-nitrophenyl-N-acetyl-β-D-glucosaminide was then added and the plate was incubated at 37° C. for 90 min. The reaction was stopped with a glycine (50 mM)/EDTA (5 mM) buffer (pH 10.4) and the absorption of each well was measured at 405 to 650 nm. The data were analyzed according to standard methods.

[3] = tested on: bone resorption by osteoclasts; experiment: Pit Assay (osteoclast resorption test); assay type: cell-based; conditions: inhibition of bone resorption
From the text: The inhibition of bone resorption by the compounds of the invention can be determined, for example, with the aid of an osteoclast resorption test (“Pit Assay”), for example analogously to WO-A-95/32710 which is incorporated herein by reference.

Sequence of human vitronectin receptor αvβ3 (P06756 31-889 limits assumed): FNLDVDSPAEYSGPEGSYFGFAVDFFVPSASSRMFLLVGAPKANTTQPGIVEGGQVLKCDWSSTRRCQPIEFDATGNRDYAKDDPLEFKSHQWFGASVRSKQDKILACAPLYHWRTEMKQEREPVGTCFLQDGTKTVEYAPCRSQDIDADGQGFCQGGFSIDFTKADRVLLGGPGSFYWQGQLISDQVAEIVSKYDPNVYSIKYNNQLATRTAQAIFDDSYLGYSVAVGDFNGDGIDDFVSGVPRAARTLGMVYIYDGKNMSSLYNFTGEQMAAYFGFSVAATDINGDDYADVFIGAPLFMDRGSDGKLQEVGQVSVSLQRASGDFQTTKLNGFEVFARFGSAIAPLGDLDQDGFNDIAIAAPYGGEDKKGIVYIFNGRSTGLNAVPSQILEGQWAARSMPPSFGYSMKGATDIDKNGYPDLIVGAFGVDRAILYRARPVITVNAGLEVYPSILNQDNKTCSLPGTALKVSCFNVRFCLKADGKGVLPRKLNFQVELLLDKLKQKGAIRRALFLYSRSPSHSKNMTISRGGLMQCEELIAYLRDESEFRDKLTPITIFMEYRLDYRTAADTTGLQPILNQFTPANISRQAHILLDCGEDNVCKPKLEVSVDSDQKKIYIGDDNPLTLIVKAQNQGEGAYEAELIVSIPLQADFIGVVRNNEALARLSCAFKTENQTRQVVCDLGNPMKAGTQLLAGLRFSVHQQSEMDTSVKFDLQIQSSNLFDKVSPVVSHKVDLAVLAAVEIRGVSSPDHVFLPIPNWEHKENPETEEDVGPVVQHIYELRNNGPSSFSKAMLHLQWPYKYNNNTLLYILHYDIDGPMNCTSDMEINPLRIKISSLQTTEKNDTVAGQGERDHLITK
Sequence of human vitronectin receptor αvβ3 (P06756 891-1048 limits assumed): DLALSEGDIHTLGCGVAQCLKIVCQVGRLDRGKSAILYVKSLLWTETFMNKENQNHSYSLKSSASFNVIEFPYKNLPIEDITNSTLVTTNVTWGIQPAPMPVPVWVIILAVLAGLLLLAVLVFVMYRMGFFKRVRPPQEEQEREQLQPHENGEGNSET
Sequence of human vitronectin receptor αvβ3 (P05106 27-788): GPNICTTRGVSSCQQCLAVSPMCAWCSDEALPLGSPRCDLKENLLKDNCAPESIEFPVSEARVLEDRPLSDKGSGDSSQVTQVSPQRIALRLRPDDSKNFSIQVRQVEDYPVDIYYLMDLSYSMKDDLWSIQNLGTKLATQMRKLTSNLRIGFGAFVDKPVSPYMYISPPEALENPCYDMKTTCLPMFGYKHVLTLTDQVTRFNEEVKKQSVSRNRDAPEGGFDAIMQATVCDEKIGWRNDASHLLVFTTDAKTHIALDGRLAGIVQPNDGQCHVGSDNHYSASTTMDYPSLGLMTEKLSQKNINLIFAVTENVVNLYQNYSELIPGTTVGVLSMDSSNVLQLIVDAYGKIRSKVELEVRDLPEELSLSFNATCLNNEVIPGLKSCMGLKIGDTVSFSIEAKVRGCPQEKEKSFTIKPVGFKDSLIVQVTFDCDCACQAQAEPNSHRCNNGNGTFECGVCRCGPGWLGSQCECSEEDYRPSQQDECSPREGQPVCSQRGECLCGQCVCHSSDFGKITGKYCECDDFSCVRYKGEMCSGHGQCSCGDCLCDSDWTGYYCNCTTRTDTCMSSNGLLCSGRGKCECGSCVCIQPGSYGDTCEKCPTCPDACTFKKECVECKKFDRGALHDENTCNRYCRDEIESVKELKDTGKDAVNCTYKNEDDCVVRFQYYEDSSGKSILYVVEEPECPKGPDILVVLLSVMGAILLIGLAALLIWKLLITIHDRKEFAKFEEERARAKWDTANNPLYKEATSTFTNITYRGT

| IC50 [1] | IC50 [2] | IC50 [3] | SMILES |
| --- | --- | --- | --- |
| 1.9 nM | 30 nM | 0.8 nM | O=C(NC1=NCCCN1)C1CCN(c2ncnc3c2ncn3C[C@H](NS(=O)(=O)c2cccc3ccccc23)C(=O)O)CC1 [Example 1, (2S)-2-(Naphthalene-1-sulfonylamino)-3-(6-(4-(1 ,4,5,6-tetrahydropyrimidin-2-ylcarbamoyl)-piperidin-1-yl)-purin-9-yl)-propionic acid] |
| 2.5 nM | 9 nM | 2.3 nM | O=C(NC1=NCCCN1)C1CCN(c2ncnc3c2ncn3C[C@H](NS(=O)(=O)c2ccc3ccccc3c2)C(=O)O)CC1 [Example 2, (2S)-2-(Naphthalene-2-sulfonylamino)-3-(6-(4-(1,4,5,6-tetrahydropyrimidin-2-ylcarbamoyl)-piperidin-1-yl)-purin-9-yl)-propionic acid] |
| 4.5 nM | 67 nM | – | CC(C)(C)c1ccc(S(=O)(=O)N[C@@H](Cn2cnc3c(N4CCC(C(=O)NC5=NCCCN5)CC4)ncnc32)C(=O)O)cc1 [Example 3, (2S)-2-(4-tert-Butyl-benzenesulfonylamino)-3-(6-(4-(1,4,5,6-tetrahydropyrimidin-2-ylcarbamoyl)-piperidin-1-yl)-purin-9-yl)-propionic acid] |
| 25 nM | 1400 nM | – | CCCS(=O)(=O)N[C@@H](Cn1cnc2c(N3CCC(C(=O)NC4=NCCCN4)CC3)ncnc21)C(=O)O [Example 4, (2S)-2-(Propane-1-sulfonylamino)-3-(6-(4-(1,4,5,6-tetrahydropyrimidin-2-ylcarbamoyl)-piperidin-1-yl)-purin-9-yl)-propionic acid] |
| 3.2 nM | 28 nM | 15 nM | O=C(NC1=NCCCN1)C1CCN(c2ncnc3c2ncn3C[C@H](NS(=O)(=O)c2ccc(C(F)(F)F)cc2)C(=O)O)CC1 [Example 5, (2S)-3-(6-(4-(1,4,5,6-Tetrahydropyrimidin-2-ylcarbamoyl)-piperidin-1-yl)-purin-9-yl)-2-(4-trifluoromethyl-benzenesulfonylamino)-propionic acid] |
| 3.4 nM | 42 nM | – | O=C(NC1=NCCCN1)C1CCN(c2ncnc3c2ncn3C[C@H](NS(=O)(=O)c2cccc(C(F)(F)F)c2)C(=O)O)CC1 [Example 6, (2S)-3-(6-(4-(1,4,5,6-Tetrahydropyrimidin-2-ylcarbamoyl)-piperidin-1-yl)-purin-9-yl)-2-(3-trifluoromethyl-benzenesulfonylamino)-propionic acid] |
| 23 nM | 500 nM | – | O=C(NC1=NCCCN1)C1CCN(c2ncnc3c2ncn3C[C@H](NS(=O)(=O)Cc2ccccc2)C(=O)O)CC1 [Example 7, (2S)-2-Phenylmethanesulfonylamino-3-(6-(4-(1,4,5,6-tetrahydropyrimidin-2-ylcarbamoyl)-piperidin-1-yl)-purin-9-yl)-propionic acid] |
| 85 nM | – | – | O=C(NC1=NCCCN1)C1CCN(c2ncnc3c2ncn3C[C@H](NS(=O)(=O)C(F)(F)F)C(=O)O)CC1 [Example 8, (2S)-3-(6-(4-(1,4,5,6-Tetrahydropyrimidin-2-ylcarbamoyl)-piperidin-1-yl)-purin-9-yl)-2-trifluoromethanesulfonylamino-propionic acid] |
| 38 nM | 2500 nM | – | O=C(NC1=NCCCN1)C1CCN(c2ncnc3c2ncn3C[C@H](NS(=O)(=O)CC(F)(F)F)C(=O)O)CC1 [Example 9, (2S)-3-(6-(4-(1,4,5,6-Tetrahydropyrimidin-2-ylcarbamoyl)-piperidin-1-yl)-purin-9-yl)-2-(2,2,2-trifluoro-ethanesulfonylamino)-propionic acid] |
| 4.2 nM | 1120 nM | – | CC(C)CS(=O)(=O)N[C@@H](Cn1cnc2c(N3CCC(C(=O)NC4=NCCCN4)CC3)ncnc21)C(=O)O [Example 10, (2S)-2-(2-Methylpropane-1-sulfonylamino)-3-(6-(4-(1,4,5,6-tetrahydropyrimidin-2-ylcarbamoyl)-piperidin-1-yl)-purin-9-yl)-propionic acid] |
| 6.5 nM | 87 nM | – | Cc1ccc(S(=O)(=O)N[C@@H](Cn2cnc3c(N4CCC(C(=O)NC5=NCCCN5)CC4)ncnc32)C(=O)O)cc1 [Example 11, (2S)-3-(6-(4-(1,4,5,6-Tetrahydropyrimidin-2-ylcarbamoyl)-piperidin-1-yl)-purin-9-yl)-2-(toluene-4-sulfonylamino)-propionic acid] |
| 5 nM | 38 nM | 26 nM | Cc1cc(C)c(S(=O)(=O)N[C@@H](Cn2cnc3c(N4CCC(C(=O)NC5=NCCCN5)CC4)ncnc32)C(=O)O)c(C)c1 [Example 12, (2S)-3-(6-(4-(1,4,5,6-Tetrahydropyrimidin-2-ylcarbamoyl)-piperidin-1-yl)-purin-9-yl)-2-(2,4,6-trimethyl-benzenesulfonylamino)-propionic acid] |
